In patent publication US9549941B2, “Compositions and methods for treating hepatitis C virus” (priority 2011, dated 2017):

What was measured:
[1] = test system: 1b con-1-based chimeric replicon containing 5a NS5B, wild-type; assay: Transient replicon assay; assay type: cell-based; settings: Hepatitis C virus, read-out: EC50 WT
Experimental: (Lam et al., J. Virology (2011) 85(23): 12334-12342; Lam et al., Antimicrob. Agents Chemother. (2012) 56(6): 3359-3368.) S282T mutations in NS5B were created by site-directed mutagenesis in 1a-H77, 1b con-1, and 2a JFH1 sub-genomic replicons. 1b con-1-based chimeric replicons containing 2b, 3a, 4a, 5a, or 6a NS5B were also engineered to harbor the S282T mutation. […] Relative percentages of mutant and WT were assessed by deep sequencing.

[2] = ELECTRON adverse events (Groups 1,7,8,9 N=70; Groups 2,3,4 N=30; Group 5 N=10; Group 6 N=10); assay type: in vivo, human; settings: subjects with event

SMILES: CC(C)OC(=O)[C@H](C)N[P@](=O)(OC[C@H]1O[C@@H](n2ccc(=O)[nH]c2=O)[C@](C)(F)[C@@H]1O)Oc1ccccc1 [GS-7977, (S)-isopropyl 2-(((S)-(((2R,3R,4R,5R)-5-(2,4-dioxo-3,4-dihydropyrimidin-1(2H)-yl)-4-fluoro-3-hydroxy-4-methyltetrahydrofuran-2-yl)methoxy)(phenoxy)phosphoryl)amino)propanoate]
- EC50 [1]: 9.91 nM
- Abdominl Pain: n [2]: 0
- Alopecia: n [2]: 0
- Anemia: n [2]: 0
- Arthralgia: n [2]: 0
- Axillary Pain: % [2]: (20) %
- Axillary Pain: n [2]: 2
- Back Pain: % [2]: (10) %
- Back Pain: n [2]: 1
- Blood and Lymphatic System Disorders: n [2]: 0
- Chills: n [2]: 0
- Decreased Appetite: n [2]: 0
- Diarrhoea: n [2]: 0
- Dizziness Postural: n [2]: 0
- Dizziness: % [2]: (20) %
- Dizziness: n [2]: 2
- Dry Skin: n [2]: 0
- Dyspnoea: n [2]: 0
- Fatigue: % [2]: (30) %
- Fatigue: n [2]: 3
- Flatulence: n [2]: 0
- Gastrointestinal Disorders: % [2]: (80) %
- Gastrointestinal Disorders: n [2]: 8
- General Disorders and Administration Site Conditions: % [2]: (80) %
- General Disorders and Administration Site Conditions: n [2]: 8
- Headache: % [2]: (80) %
- Headache: n [2]: 8
- Infections and Infestations: % [2]: (50) %
- Infections and Infestations: n [2]: 5
- Injection Site Erythema: n [2]: 0
- Insomnia: % [2]: (60) %
- Insomnia: n [2]: 6
- Irritability: % [2]: (10) %
- Irritability: n [2]: 1
- Metabolism and Nutrition Disorders: n [2]: 0
- Musculoskeletal and Connective Tissue Disorders: % [2]: (20) %
- Musculoskeletal and Connective Tissue Disorders: n [2]: 2
- Myalgia: % [2]: (10) %
- Myalgia: n [2]: 1
- Nausea: % [2]: (30) %
- Nausea: n [2]: 3
- Nervous System Disorders: % [2]: (90) %
- Nervous System Disorders: n [2]: 9
- Oropharyngeal Pain: % [2]: (20) %
- Oropharyngeal Pain: n [2]: 2
- Pain: n [2]: 0
- Pruritus: n [2]: 0
- Psychiatric Disorders: % [2]: (60) %
- Psychiatric Disorders: n [2]: 6
- Pyrexia: n [2]: 0
- Rash: % [2]: (10) %
- Rash: n [2]: 1
- Respiratory, Thoracic and Mediastinal Disorders: % [2]: (30) %
- Respiratory, Thoracic and Mediastinal Disorders: n [2]: 3
- Skin and Subcutaneous Tissue Disorders: % [2]: (30) %
- Skin and Subcutaneous Tissue Disorders: n [2]: 3
- Upper Respiratory Tract Infection: % [2]: (20) %
- Upper Respiratory Tract Infection: n [2]: 2
- ≧1 AE: % [2]: (100) %
- ≧1 AE: n [2]: 10
